Data as given in publication PMC11966596, “Perturbation-Modulated Native Mass Spectrometry Excludes a Nonspecific Drug Target Protein Binder Based on Conformation Stability Change” (Analytical Chemistry, 2025).

How the values were obtained:
[1] = molecular target: DHFR (recombinant human DHFR) (Homo sapiens, UniProt P00374); details: 5 μM his-tagged protein; 100 mM ammonium acetate; co-purified NADPH present
lysozyme = molecular target: T1, lysozyme (Gallus gallus, UniProt P00698); assay: native OPP-ESI-MS, charge state distribution; format: binding; details: 100 μM protein, 1 mM ligand; 25 mM ammonium acetate; OPP solvent 10 mM NH4Ac
T1 construct: gene LYZ
T1 sequence (P00698 19-147): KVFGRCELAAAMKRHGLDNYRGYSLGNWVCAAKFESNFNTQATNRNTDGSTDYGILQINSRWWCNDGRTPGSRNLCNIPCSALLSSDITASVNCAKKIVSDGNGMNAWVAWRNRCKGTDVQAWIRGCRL

Sequence of DHFR (recombinant human DHFR) (P00374 whole entry): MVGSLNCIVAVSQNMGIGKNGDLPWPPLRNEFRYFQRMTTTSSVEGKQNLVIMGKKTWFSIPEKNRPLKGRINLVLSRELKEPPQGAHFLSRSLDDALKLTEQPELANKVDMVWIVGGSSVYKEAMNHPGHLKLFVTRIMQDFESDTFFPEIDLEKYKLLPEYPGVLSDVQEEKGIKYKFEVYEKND

R (bound/unbound protein ratio) (lysozyme)	Structure (SMILES)	% binding at 100 μM [1] [%]
	Nc1nc(N)c2nc(CNc3ccc(C(=O)N[C@@H](CCC(=O)O)C(=O)O)cc3)cnc2n1 [aminopterin]	100
0.59	CC(=O)N[C@H]1[C@H](O[C@H]2[C@H](O)[C@@H](NC(C)=O)C(O)O[C@@H]2CO)O[C@H](CO)[C@@H](O[C@@H]2O[C@H](CO)[C@@H](O)[C@H](O)[C@H]2NC(C)=O)[C@@H]1O (some centres unmarked) [NTAC]	
